Assay results taken from US20200131227A1, “POLYPEPTIDE WITH TUMOUR BINDING ACTIVITY” (RUPRECHT-KARLS-UNIVERSITÄT HEIDELBERG, priority 2017, published 2020).
Values joined by “and” are separate entries in the source; they are usually repeats but may differ in a detail not shown here. Equal values may be shown once. Blank lines part the entries; values can stand above or below the substance they belong to. *1 amine or outer side, *2 acyl side, *3 side chain or, on linkers, in order; H or OH if unused. Bridges are numbered along the chain shown (N, C = ends). Roman numbers before positions name the chains, in order. Where no end group is shown, it is not given here. [ ]: non-standard residue; d: D form. The star is where a group is joined. ξ: configuration not given here. DOTA = O=C(O)CN1CCN(CC(=O)O)CCN(CC(=O)*)CCN(CC(=O)O)CC1; 125I = iodine-125 label on tyrosine, [125I]*; X1 = O=C(CO/N=C/C(=O)[*:2])[*:1]; ξK = NCCCCC(N)C(=O)O; ξS = NC(CO)C(=O)O

How the values were obtained:
[1] = system: Capan-2 cells
[2] = system: carcinoma cell lines; experiment: In vitro binding of radiolabeled peptides to several carcinoma cell lines; assay type: cell-based, human; conditions: for binding of ^125I-labeled peptide with unlabeled peptide as competitor: co-incubation with 10^-6 M unlabeled peptide, 60 min, all cell lines tested
Protocol: (§1) For binding studies, 2.5×10^5 to 4×10^5 cells were seeded in 6-well plates and cultivated for 48 hours. Cells were incubated for 60 min with 1 mL serum-free medium containing the ^125I-labeled peptide (see above). For competition experiments, cells were simultaneously exposed to unlabeled (10^-4 M to 10^-10 M) and ^125I-labeled peptides. After three washing steps with PBS (pH 7.4) the cells were lysed with 0.5 mL of 0.3 M NaOH. Experiments concerning the internalization, kinetics and efflux were additionally performed with ^177Lu-DOTA-SFITGv6. To evaluate kinetics and efflux HNO97 cells were incubated for different time intervals (10 min to 480 min) and 60 min, respectively, with ^177Lu-DOTA-SFITGv6 and lysed as described. To continue with the efflux experiment radioactive medium was replaced by non-radioactive medium and cells were incubated again for 60 to 240 min before measuring radioactivity of the cell lysates and the medium. For internalization experiments the cells were exposed to ^177Lu-DOTA-SFITGv6 for different time intervals (10 to 240 min) at 37° C. and 4° C. After three washing steps with PBS the cells were incubated with 1 mL of glycine-HCl 50 mmol/L in PBS (pH 2.8) for 10 min at RT to remove the surface bound activity. Then, cells were washed with 3 mL of ice-cold PBS and lysed as described. Radioactivity was determined in a gamma counter and calculated as percentage of the applied dose per 1×10^6 cells. Experiments were performed three times, and three repetitions per independent experiment were acquired.
(§2) For the assessment of the peptide binding capacity in vitro, 2.5-4×10^5 cells were seeded into 6-well plates and cultivated for 48 h. ^125I-labeled peptide resuspended in 1 mL serum-free medium was added and incubated for either 10 min or 60 min with or without different concentrations of unlabeled peptide (10^−4-10^−11 M). Afterwards, cell monolayers were washed three times with 1 mL phosphate-buffered saline (pH 7.4) to remove unbound peptide and the cells were harvested with 1.4 mL lysis buffer (0.3 M NaOH). To evaluate kinetic properties the cells were exposed to ^177Lu-DOTA-labeled peptides for 10, 30, 60, 120, and 240 min, respectively, and lysed as described. For the efflux experiments the cells were incubated with ^177Lu-DOTA-labeled peptides for 60 min. Thereafter, radioactive medium was replaced by non-radioactive medium and cell monolayers were incubated for additional 60, 120, and 240 min and afterwards lysed as described earlier. The internalization was assessed after exposure of the cells to ^177Lu-DOTA-labeled peptides for 10, 30, 60, 120, and 240 min at 37° C. Unspecifically bound peptide was removed from the surface by incubation with 1 M glycine-HCl solution (pH 2.2) for 10 min. The monolayer cell was rinsed with PBS and cells were lysed as described before. Radioactivity was determined in a y-counter and calculated as percentage of the applied dose per 1×10^6 cells. Experiments were performed three times, and three repetitions per independent experiment were acquired.

[3] = system: HNO97 cells; experiment: In vitro binding, kinetics, internalization and efflux on HNO97 cells; assay type: cell-based, human
Protocol: as §1, §2

[4] = system: UM-UC-5 cells; experiment: In vitro binding on UM-UC-5 cells; assay type: cell-based, human; conditions: 60 min; percent applied dose/10^6 cells
Protocol: as §1, with “Then, cells were washed with 3 mL of ice-cold PBS and lysed as described.” left out, “Experiments were performed three times, and three repetitions per independent experiment were acquired.” left out

[5] = system: HNO210 cells; experiment: In vitro binding on HNO210 cells; assay type: cell-based, human; conditions: 60 min; percent applied dose/10^6 cells
Protocol: For binding studies, 2.5×10^5 to 4×10^5 cells were seeded in 6-well plates and cultivated for 48 hours. Cells were incubated for 60 min with 1 mL serum-free medium containing the ^125I-labeled peptide (see above). For competition experiments, cells were simultaneously exposed to unlabeled (10^-4 M to 10^-10 M) and ^125I-labeled peptides. After three washing steps with PBS (pH 7.4) the cells were lysed with 0.5 mL of 0.3 M NaOH. Experiments concerning the internalization, kinetics and efflux were additionally performed with ^177Lu-DOTA-SFITGv6. […] To continue with the efflux experiment radioactive medium was replaced by non-radioactive medium and cells were incubated again for 60 to 240 min before measuring radioactivity of the cell lysates and the medium. […] Radioactivity was determined in a gamma counter and calculated as percentage of the applied dose per 1×10^6 cells. […]
For the assessment of the peptide binding capacity in vitro, 2.5-4×10^5 cells were seeded into 6-well plates and cultivated for 48 h. ^125I-labeled peptide resuspended in 1 mL serum-free medium was added and incubated for either 10 min or 60 min with or without different concentrations of unlabeled peptide (10^−4-10^−11 M). […] The internalization was assessed after exposure of the cells to ^177Lu-DOTA-labeled peptides for 10, 30, 60, 120, and 240 min at 37° C. […]

[6] = system: HNO258 cells; experiment: In vitro binding on HNO258 cells; assay type: cell-based, human; conditions: 60 min; percent applied dose/10^6 cells
Protocol: as §1, with “Then, cells were washed with 3 mL of ice-cold PBS and lysed as described.” left out, “Experiments were performed three times, and three repetitions per independent experiment were acquired.” left out

[7] = system: LUDLU-1 cells; experiment: In vitro binding on LUDLU-1 cells; assay type: cell-based, human; conditions: 60 min; percent applied dose/10^6 cells
Protocol: as §1, with “Then, cells were washed with 3 mL of ice-cold PBS and lysed as described.” left out, “Experiments were performed three times, and three repetitions per independent experiment were acquired.” left out

[8] = system: HT29 cells; experiment: In vitro binding on HT29 cells; assay type: cell-based, human; conditions: 60 min; percent applied dose/10^6 cells
Protocol: as §1, with “Then, cells were washed with 3 mL of ice-cold PBS and lysed as described.” left out, “Experiments were performed three times, and three repetitions per independent experiment were acquired.” left out

[9] = system: HNO399 cells; experiment: In vitro binding on HNO399 cells; assay type: cell-based, human; conditions: 60 min; percent applied dose/10^6 cells
Protocol: as §2, with “To evaluate kinetic properties the cells were exposed to ^177Lu-DOTA-labeled peptides for 10, 30, 60, 120, and 240 min, respectively, and lysed as described.” left out, “The internalization was assessed after exposure of the cells to ^177Lu-DOTA-labeled peptides for 10, 30, 60, 120, and 240 min at 37° C.” left out

[10] = Serum stability assay (radio-HPLC); assay type: in vitro ADME, human
Protocol: Five MBq of the purified ^131I-radiolabeled peptide was incubated in 300 μL human serum at 37° C. After different time intervals (15 min to 24 hours) 20 μL serum was precipitated with 40 μL acetonitrile. The stability of the labeled peptide in the supernatant was monitored by radio-HPLC at selected time points using a chromolith performance RP18ec column (3 mm×100 mm) equipped with a gamma detector (Packard COBRA™ Auto-Gamma, GMI). Separation condition was a gradient of 0% to 60% aqueous acetonitrile supplemented with 0.1% TFA over 10 min with a flow rate of 2 mL/min.

[11] = system: MCF-7 cells; experiment: In vitro binding on MCF-7 cells; assay type: cell-based, human; conditions: 60 min; percent applied dose/10^6 cells
Protocol: as §1, with “Then, cells were washed with 3 mL of ice-cold PBS and lysed as described.” left out, “Experiments were performed three times, and three repetitions per independent experiment were acquired.” left out

IC50 [1]: 0.76 nM
Substance: I: GRCTGRGDLGRLCYPD-NH2 / II: GRCTGRGDLGRLCYPD-NH2 / III: GRCTGRGDLGRLCYPD-NH2 / IV: {DOTA}-G[ξS]G[ξS][ξK]G[ξS]G[ξS][ξK]G[ξS]G[ξS][ξK]-NH2 (disulfide I:3-I:13, II:3-II:13, III:3-III:13; linker I:N-IV:15, II:N-IV:10, III:N-IV:5 via X1) [^125I-DOTA-SFLAP3-trimer]

Substance: ^125I-SFITGv6: ^125I-labeled SFITGv6 (GRCTFRGDLMQLCY(125I)PD; disulfide 3-13)
competition of binding by non-radioactively labeled counterpart ([2]; 10^−6 M competitor, all tested HNSCC cell lines): almost completely competed
competition of binding by unlabeled analog ([2]; 10^−6 M unlabeled analog): more than 90%
average specific binding of ^125I-labeled peptide ([2]; HNO97, other HNSCC, lung, bladder and colon carcinoma cell lines): 7%
binding of ^125I-labeled peptide with unlabeled peptide as competitor [2]: below 1 % of the applied dose
retention of radioactivity in cells (efflux experiment) ([3]; 240 min after termination of the uptake (1 h exposure), of originally accumulated activity): less than 5%
maximal uptake of ^125I-labeled peptide (kinetics) ([3]; after exposure for 60 min): 37.3%
internalization of ^125I-labeled peptide after decrease ([3]; decrease following the 60 min maximum): 12.6%
maximal internalization of ^125I-labeled peptide ([3]; within 60 min): up to 24.1%
binding of ^125I-labeled peptide [4]: 10.4%
binding of ^125I-labeled peptide [5]: 7.1% and 10.5%
binding of ^125I-labeled peptide [6]: 3.5%
binding of ^125I-labeled peptide [7]: 4.3%
binding of ^125I-labeled peptide [8]: 2.8%
binding of ^125I-labeled peptide [9]: 9.8%
proteolytic stability in human serum [10]: no degradation over a 24 hours

Substance: ^125I-SFPF-10: ^125I-labeled peptide SFPF-10 (GRCTFRGDKMQLCY(125I)PD; disulfide 3-13 (inferred))
binding of ^125I-labeled peptide with unlabeled peptide as competitor [2]: below 1 % of the applied dose
maximal uptake of ^125I-labeled peptide (kinetics) ([3]; after exposure for 120 min): 12.6%
uptake of ^125I-labeled peptide after decrease (kinetics) ([3]; decrease following the 120 min maximum): 6.7%
binding of ^125I-labeled peptide [4]: 7.5%
binding of ^125I-labeled peptide [6]: 2.6%
binding of ^125I-labeled peptide [11]: 1.6%
